Data from paper PMC5641942 (Physiological Reports, 2017).
Where two headings read alike, the source gives them in different places.

Legend:
[1] = Intravenous taurine pharmacokinetics in rats; type: in vivo, male Sprague-Dawley rats; details: for A / B / α / β: two-compartment model; for clearance / AUC(0-inf): male, Sprague-Dawley, rat, plasma; for clearance: iv
Experimental: (§1) The pH was adjusted with NaOH or HCl to 7.40 ± 0.05.
(§2) The animals were acclimatized for a minimum of 5 days in groups of two and maintained on standard feed with free access to water. Prior to dosing, the animals were fasted for 16–20 h with free access to water.
(§3) Plasma was harvested immediately by 10 min of centrifugation at 4°C, 3600g (Multifuge 1 S‐R, Heraeus, Hanau, Germany) and stored in polypropylene tubes (Pony Vial, PerkinElmer, Waltham, MA, USA) at −20°C until analysed. At the end of the experiment, animals were sacrificed by spinal dislocation using a guillotine. Plasma samples were left to defrost and mixed with 4 mL of liquid scintillation cocktail. The samples were counted for 3 min on a scintillation counter from Tri‐Carb 2900TR.
(§4) Based on this V d1, volume of distribution in the central compartment 1; V d2, volume of distribution in the peripheral compartment 2; AUC, area under the curve; and K10, the elimination rate from the central department, were calculated using Phoenix® 6.3 version (Pharsight Corporation, A Certara Company, USA). […] C max and t max were found as mean values of the plasma concentration profiles within each group. Area under the plasma concentration versus time profiles (AUC), an expression of total exposure, were determined with noncompartmental analysis using the linear trapezoidal rule from time zero to C max and by log linear methods from C max to the last measured plasma concentration and denoted AUC0‐tlast, k e is the first order elimination rate constant calculated as the slope from the terminal log plasma concentration time curve of individual animals. The total clearance was calculated as dose divided by AUC.

[2] = Oral taurine pharmacokinetics in rats; type: in vivo, male Sprague-Dawley rats; details: for AUC: read-out: AUC0‐tlast (converted); for k el: read-out: k e (converted)
Experimental: as §1, §2, §3, §4

[3] = biological target: T1, TauT (Homo sapiens, UniProt P31641); details: pH 6.0, 52 nmol/L taurine
T1 sequence (P31641 1-620): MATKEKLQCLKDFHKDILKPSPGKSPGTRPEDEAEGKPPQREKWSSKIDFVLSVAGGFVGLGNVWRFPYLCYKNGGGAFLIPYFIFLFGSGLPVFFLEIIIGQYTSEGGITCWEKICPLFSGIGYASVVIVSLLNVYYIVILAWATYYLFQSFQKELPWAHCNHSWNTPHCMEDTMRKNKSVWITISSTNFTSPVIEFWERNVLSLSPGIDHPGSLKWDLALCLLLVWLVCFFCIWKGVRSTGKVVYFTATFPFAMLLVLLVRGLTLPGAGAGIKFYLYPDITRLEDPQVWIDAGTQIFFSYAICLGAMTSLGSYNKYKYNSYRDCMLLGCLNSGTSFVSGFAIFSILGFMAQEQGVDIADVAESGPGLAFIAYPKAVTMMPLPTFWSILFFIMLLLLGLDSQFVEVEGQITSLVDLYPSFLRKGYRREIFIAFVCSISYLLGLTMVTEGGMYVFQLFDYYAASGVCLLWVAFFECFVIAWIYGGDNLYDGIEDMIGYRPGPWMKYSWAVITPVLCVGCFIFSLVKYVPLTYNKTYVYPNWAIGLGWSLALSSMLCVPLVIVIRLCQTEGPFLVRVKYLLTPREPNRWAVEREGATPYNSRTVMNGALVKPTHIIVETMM

[4] = Oral taurine pharmacokinetics in rats; type: in vivo; details: male, Sprague-Dawley, rat, plasma, median [Q1, Q3]
[5] = design: method as in Yu et al. 2013; details: beagle dogs, noncompartmental analysis; ref Yu et al. 2013; cited from earlier work
[6] = design: method as in Sved et al. (2007); details: male Sprague-Dawley rats, ref Sved et al. (2007), cited from earlier work
[7] = biological target: T1, TauT; assay: Concentration-dependent taurine uptake in Caco-2 cells at pH 7.4; type: in vitro ADME; design: endogenous in cells; host or cells: Caco-2; details: for K m of saturable taurine uptake: Caco-2, pH 7.4, 0.052–100 μmol/L taurine, 5 min
Experimental: Polycarbonate membranes (1.12 cm^2, 0.4 μm pore size) of TranswellTM inserts or 24-well cell culture plates (1.90 cm^2) were used as supports for cell cultivation. […] Experiments were performed 6 days after seeding the Caco-2 cells cultured on 24 wells plates or performed 13-15 days postseeding cells on TranswellTM insert. […] The culture medium was changed every 2-3 days. […] HBSS buffer consisted of in mM: […] KCl, 5.33; […] NaCl, 138; […] Nohr et al. 2014b).

[8] = male, Sprague-Dawley, rat, plasma, oral 10 mg/kg
[9] = male, Sprague-Dawley, rat, plasma, oral 30 mg/kg
[10] = male, Sprague-Dawley, rat, plasma, oral 100 mg/kg
[11] = male, Sprague-Dawley, rat, plasma, oral 299 mg/kg
[12] = male, Sprague-Dawley, rat, plasma, oral 997 mg/kg

NCCS(=O)(=O)O [Taurine, 2‐aminoethane sulfonic acid]
AUC0‐∞/dose ([1]; IV 1 mg/kg): 89 ± 18.9 μg·min/mL pr. mg/kg | K10 ([1]; IV 1 mg/kg): 0.04 ± 0.01 min⁻¹ | V d1 ([1]; IV 1 mg/kg): 0.299 ± 0.048 L/kg | V d2 ([1]; IV 1 mg/kg): 4.608 ± 0.974 L/kg | A ([1]; IV 1 mg/kg): 3.5 ± 0.5 µg/mL | B ([1]; IV 1 mg/kg): 0.12 ± 0.03 µg/mL | α ([1]; IV 1 mg/kg): 0.14 ± 0.02 min⁻¹ | β ([1]; IV 1 mg/kg): 1.9 ± 0.4 1/min *10^−3 | AUC0‐∞/dose ([1]; IV 10 mg/kg): 59 ± 19.0 μg·min/mL pr. mg/kg | K10 ([1]; IV 10 mg/kg): 0.06 ± 0.01 min⁻¹ | V d1 ([1]; IV 10 mg/kg): 0.353 ± 0.062 L/kg | V d2 ([1]; IV 10 mg/kg): 4.662 ± 1.153 L/kg | A ([1]; IV 10 mg/kg): 31.0 ± 4.2 µg/mL | B ([1]; IV 10 mg/kg): 0.89 ± 0.14 µg/mL | α ([1]; IV 10 mg/kg): 0.144 ± 0.03 min⁻¹ | β ([1]; IV 10 mg/kg): 3.0 ± 0.9 1/min *10^−3 | AUC0‐∞/dose ([1]; IV 30 mg/kg): 115 ± 39.2 μg·min/mL pr. mg/kg | K10 ([1]; IV 30 mg/kg): 0.03 ± 0.01 min⁻¹ | V d1 ([1]; IV 30 mg/kg): 0.323 ± 0.063 L/kg | V d2 ([1]; IV 30 mg/kg): 8.374 ± 4.466 L/kg | B ([1]; IV 30 mg/kg): 1.87 ± 0.45 µg/mL | α ([1]; IV 30 mg/kg): 0.07 ± 0.01 min⁻¹ | β ([1]; IV 30 mg/kg): 1.3 ± 0.6 1/min *10^−3 | clearance ([1]; 1 mg/kg, IV 1 mg/kg, read-out: CL): 11.7 ± 1.3 mL/min/kg | clearance ([1]; 10 mg/kg, IV 10 mg/kg, read-out: CL): 18.7 ± 2.54 mL/min/kg | clearance ([1]; 30 mg/kg, IV 30 mg/kg, read-out: CL): 9.4 ± 1.42 mL/min/kg | clearance ([1]; IV 1–30 mg/kg, compartmental analysis, read-out: clearance): 9 to 18 mL/min/kg | AUC(0-inf) ([1]; IV 1 mg/kg): 1.48 µg·h/mL | AUC(0-inf) ([1]; IV 10 mg/kg): 9.78 µg·h/mL | AUC(0-inf) ([1]; IV 30 mg/kg): 57.5 µg·h/mL | Cmax [2, 8]: 2 ± 0.2 µg/mL | AUC [2, 8]: 3.55 µg·h/mL | k el [2, 8]: 6.67e-05 s⁻¹ | Cmax [2, 9]: 15.7 ± 2.4 µg/mL | AUC [2, 9]: 18.6 µg·h/mL | k el [2, 9]: 0.000117 s⁻¹ | Cmax [2, 10]: 70 ± 6.5 µg/mL | AUC [2, 10]: 89.9 µg·h/mL | k el [2, 10]: 0.000167 s⁻¹ | Cmax [2, 11]: 228 ± 16 µg/mL | AUC [2, 11]: 307 µg·h/mL | k el [2, 11]: 0.000167 s⁻¹ | Cmax [2, 12]: 643 ± 81 µg/mL | Tmax ([2]; male, Sprague-Dawley, rat, plasma, oral 997 mg/kg, median [Q1, Q3]): 45 min | AUC [2, 12]: 1320 µg·h/mL | k el [2, 12]: 0.00015 s⁻¹ | AUC0‐∞/dose ([2]; oral 10 mg/kg): 21 ± 1.3 μg·min/mL pr. mg/kg | AUC0‐∞/dose ([2]; oral 30 mg/kg): 37 ± 4.5 μg·min/mL pr. mg/kg | AUC0‐∞/dose ([2]; oral 100 mg/kg): 54 ± 6.0 μg·min/mL pr. mg/kg | AUC0‐∞/dose ([2]; oral 299 mg/kg): 62 ± 6.7 μg·min/mL pr. mg/kg | AUC0‐∞/dose ([2]; oral 997 mg/kg): 79 ± 6.7 μg·min/mL pr. mg/kg | TauT share of carrier mediated taurine uptake [3]: 78% | Tmax ([4]; oral 100 mg/kg): 30 min | Tmax ([4]; oral 299 mg/kg): 30 min | clearance [5]: 3.33 mL/min/kg | AUC ([6]; oral 30 mg/kg): 236 µg·h/mL | AUC ([6]; oral 300 mg/kg): 1760 µg·h/mL | V max of saturable taurine uptake ([7]; Caco-2, pH 7.4): 4.6 ± 0.8 pmol/(cm^2·min) | nonsaturable component, B ([7]; Caco-2, pH 7.4): 5.7e-08 ± 8e-09 cm/min | K m of saturable taurine uptake [7]: 5.6 µM | K m of saturable taurine uptake ([7]; listed as taurine): 5.6 ± 2.6 µM
